Columns and labels:
Assay type in all cases: biochemical
JAK1 = JAK1 (Homo sapiens, UniProt P23458); experiment: JAK kinase activity, homogeneous time-resolved fluorescence (JAK1 reaction system); conditions: ATP 2 μM, JAK1 protein 0.2 ng/μL; read-out: JAK 1 activity
Description: (§1) The activity measurement method of JAK kinase was to use homogeneous time-resolved fluorescence technique. The reaction was performed in 384 shallow well plates with a total reaction volume of 10 μL. The mixture of kinase protein, compound, ATP and substrate was carried out in a reaction buffer of 50 mM Hepes (pH7.0), NaN3 0.02%, BSA 0.01%, 0.1 mM Orthocanadate, 5 mM MgCl2, and 1 mM DTT. After reacting for 1 hour, an antibody capable of recognizing substrate phosphorylation, dye XL-615 and detection buffer (Cisbio) containing EDTA were added to the system. The reaction signal of kinase was detected by PE company's porous plate detector. The parameter settings were excitation light at 320 nm, emission light at 615 nm and 665 nm. The activity of JAK is indirectly reflected by the signal ratio of 665 nm and 615 nm. In the reaction, the background well without enzyme and the total enzyme activity well without compound were set.
(§2) The IC50 value of the compound inhibiting protein was obtained by the formula: Y=100/(1+10^((Log IC50−X)*HillSlope)). In JAK1 reaction system, the concentration of ATP was 2 μM, and the concentration of JAK1 protein was 0.2 ng/μL.

JAK2 = JAK2 (Homo sapiens, UniProt O60674); experiment: JAK kinase activity, homogeneous time-resolved fluorescence (JAK2 reaction system); conditions: ATP 2 μM, JAK2 protein 0.01 ng/μL
Description: as §1, §2
In JAK2 reaction system, the concentration of ATP was 2 μM, and the concentration of JAK2 protein was 0.01 ng/μL.

JAK3 = molecular target: T1, JAK3 (Homo sapiens, UniProt P52333); experiment: JAK kinase activity, homogeneous time-resolved fluorescence (JAK3 reaction system); conditions: ATP 2 μM, JAK3 protein 0.04 ng/μL; read-out: JAK 3 activity
T1 sequence (P52333 1-1124): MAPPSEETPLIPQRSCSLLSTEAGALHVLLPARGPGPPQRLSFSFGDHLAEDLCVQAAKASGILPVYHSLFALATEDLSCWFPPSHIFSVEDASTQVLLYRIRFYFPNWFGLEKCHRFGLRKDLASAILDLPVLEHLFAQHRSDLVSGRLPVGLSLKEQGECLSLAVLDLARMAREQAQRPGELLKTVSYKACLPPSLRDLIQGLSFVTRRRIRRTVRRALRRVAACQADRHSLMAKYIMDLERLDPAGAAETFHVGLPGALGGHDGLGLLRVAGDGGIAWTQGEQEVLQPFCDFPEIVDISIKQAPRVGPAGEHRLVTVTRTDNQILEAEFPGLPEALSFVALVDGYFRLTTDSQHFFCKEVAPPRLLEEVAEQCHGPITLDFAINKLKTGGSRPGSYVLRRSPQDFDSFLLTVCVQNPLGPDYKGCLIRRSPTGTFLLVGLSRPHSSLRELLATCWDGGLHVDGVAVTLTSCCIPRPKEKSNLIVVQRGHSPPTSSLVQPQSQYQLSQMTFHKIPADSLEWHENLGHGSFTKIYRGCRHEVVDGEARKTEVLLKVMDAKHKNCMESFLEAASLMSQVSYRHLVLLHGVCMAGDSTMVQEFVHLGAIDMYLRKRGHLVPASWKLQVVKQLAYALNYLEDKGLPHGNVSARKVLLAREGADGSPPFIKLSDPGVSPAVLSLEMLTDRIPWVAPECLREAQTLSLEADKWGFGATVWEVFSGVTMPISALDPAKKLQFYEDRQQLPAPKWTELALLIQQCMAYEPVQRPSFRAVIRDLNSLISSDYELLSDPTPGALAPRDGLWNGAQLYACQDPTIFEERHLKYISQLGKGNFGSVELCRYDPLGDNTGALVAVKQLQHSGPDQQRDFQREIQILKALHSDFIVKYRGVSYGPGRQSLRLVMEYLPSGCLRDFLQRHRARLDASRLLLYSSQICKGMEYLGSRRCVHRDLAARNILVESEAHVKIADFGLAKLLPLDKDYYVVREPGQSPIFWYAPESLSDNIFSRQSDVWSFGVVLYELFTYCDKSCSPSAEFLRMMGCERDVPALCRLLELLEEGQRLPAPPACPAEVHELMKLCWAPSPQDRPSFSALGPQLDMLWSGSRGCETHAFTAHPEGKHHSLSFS
Description: as §1, with “The reaction was performed in 384 shallow well plates with a total reaction volume of 10 μL.” left out, “After reacting for 1 hour, an antibody capable of recognizing substrate phosphorylation, dye XL-615 and detection buffer (Cisbio) containing EDTA were added to the system.” left out, “set. […]” for “set.”
In JAK3 reaction system, the concentration of ATP was 2 μM, and the concentration of JAK3 protein was 0.04 ng/μL.

TYK2 = TYK2 (Homo sapiens, UniProt P29597); experiment: JAK kinase activity, homogeneous time-resolved fluorescence (TYK2 reaction system); conditions: ATP 2 μM, TYK2 protein 0.2 ng/μL; read-out: TYK 2 activity
Description: as §1, §2
In TYK2 reaction system, the concentration of ATP was 2 μM, and the concentration of TYK2 protein was 0.2 ng/μL.

Sequence of JAK1 (P23458 whole entry): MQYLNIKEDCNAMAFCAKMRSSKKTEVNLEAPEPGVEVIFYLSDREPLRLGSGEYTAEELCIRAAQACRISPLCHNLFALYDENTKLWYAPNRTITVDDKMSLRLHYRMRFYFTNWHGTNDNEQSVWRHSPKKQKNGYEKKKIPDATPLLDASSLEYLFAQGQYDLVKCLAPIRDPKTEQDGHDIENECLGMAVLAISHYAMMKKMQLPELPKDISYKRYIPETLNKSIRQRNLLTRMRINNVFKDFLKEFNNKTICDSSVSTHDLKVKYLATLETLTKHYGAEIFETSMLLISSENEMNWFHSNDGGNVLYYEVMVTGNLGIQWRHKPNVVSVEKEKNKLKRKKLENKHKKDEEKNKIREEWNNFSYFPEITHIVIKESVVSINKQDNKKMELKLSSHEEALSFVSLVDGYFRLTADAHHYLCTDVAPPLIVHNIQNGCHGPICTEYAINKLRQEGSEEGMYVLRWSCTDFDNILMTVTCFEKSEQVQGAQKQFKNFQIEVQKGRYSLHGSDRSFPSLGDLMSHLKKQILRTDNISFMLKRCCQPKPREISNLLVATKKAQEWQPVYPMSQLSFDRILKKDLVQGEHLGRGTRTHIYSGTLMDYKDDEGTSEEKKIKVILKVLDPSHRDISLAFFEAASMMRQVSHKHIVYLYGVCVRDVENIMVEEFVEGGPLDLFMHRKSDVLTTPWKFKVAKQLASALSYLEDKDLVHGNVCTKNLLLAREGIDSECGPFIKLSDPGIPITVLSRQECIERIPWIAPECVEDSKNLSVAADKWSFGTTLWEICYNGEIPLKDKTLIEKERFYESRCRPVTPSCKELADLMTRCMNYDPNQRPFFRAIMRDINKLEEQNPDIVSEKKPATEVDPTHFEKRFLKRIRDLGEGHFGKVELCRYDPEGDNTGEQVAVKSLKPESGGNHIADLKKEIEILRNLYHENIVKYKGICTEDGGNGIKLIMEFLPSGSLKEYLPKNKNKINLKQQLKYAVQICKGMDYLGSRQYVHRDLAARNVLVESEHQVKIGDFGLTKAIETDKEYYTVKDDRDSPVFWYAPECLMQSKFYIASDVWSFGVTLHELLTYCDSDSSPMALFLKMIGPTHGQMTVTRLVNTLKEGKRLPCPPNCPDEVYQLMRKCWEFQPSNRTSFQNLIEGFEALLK
Sequence of JAK2 (O60674 whole entry): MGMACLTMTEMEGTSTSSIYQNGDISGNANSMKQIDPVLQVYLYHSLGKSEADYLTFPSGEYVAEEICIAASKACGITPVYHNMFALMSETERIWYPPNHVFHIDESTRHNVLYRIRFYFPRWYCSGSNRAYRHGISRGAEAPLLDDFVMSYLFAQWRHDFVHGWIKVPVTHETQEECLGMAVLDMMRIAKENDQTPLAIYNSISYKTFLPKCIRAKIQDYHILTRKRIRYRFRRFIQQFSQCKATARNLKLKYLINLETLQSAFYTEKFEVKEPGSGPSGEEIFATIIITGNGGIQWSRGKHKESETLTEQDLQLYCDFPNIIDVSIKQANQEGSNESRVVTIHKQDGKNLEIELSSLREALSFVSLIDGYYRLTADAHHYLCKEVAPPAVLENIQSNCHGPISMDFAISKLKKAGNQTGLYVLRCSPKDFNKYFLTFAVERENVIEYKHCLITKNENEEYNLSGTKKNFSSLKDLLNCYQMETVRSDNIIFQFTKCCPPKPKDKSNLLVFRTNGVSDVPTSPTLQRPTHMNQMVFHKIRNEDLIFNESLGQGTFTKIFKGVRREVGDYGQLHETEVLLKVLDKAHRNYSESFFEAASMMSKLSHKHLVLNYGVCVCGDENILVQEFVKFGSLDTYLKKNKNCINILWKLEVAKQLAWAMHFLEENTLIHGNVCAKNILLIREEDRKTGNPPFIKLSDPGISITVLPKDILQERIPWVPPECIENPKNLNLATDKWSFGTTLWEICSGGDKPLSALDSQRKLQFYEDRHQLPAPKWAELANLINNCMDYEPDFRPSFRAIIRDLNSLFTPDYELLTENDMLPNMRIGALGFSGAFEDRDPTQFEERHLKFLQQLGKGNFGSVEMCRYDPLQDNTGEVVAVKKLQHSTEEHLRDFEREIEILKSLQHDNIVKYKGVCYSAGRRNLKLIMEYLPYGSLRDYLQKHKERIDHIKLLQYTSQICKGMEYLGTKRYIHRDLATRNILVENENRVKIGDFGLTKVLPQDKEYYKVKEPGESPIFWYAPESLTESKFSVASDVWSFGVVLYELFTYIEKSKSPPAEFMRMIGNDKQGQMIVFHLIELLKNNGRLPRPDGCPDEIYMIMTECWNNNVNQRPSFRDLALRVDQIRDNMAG
Sequence of TYK2 (P29597 whole entry): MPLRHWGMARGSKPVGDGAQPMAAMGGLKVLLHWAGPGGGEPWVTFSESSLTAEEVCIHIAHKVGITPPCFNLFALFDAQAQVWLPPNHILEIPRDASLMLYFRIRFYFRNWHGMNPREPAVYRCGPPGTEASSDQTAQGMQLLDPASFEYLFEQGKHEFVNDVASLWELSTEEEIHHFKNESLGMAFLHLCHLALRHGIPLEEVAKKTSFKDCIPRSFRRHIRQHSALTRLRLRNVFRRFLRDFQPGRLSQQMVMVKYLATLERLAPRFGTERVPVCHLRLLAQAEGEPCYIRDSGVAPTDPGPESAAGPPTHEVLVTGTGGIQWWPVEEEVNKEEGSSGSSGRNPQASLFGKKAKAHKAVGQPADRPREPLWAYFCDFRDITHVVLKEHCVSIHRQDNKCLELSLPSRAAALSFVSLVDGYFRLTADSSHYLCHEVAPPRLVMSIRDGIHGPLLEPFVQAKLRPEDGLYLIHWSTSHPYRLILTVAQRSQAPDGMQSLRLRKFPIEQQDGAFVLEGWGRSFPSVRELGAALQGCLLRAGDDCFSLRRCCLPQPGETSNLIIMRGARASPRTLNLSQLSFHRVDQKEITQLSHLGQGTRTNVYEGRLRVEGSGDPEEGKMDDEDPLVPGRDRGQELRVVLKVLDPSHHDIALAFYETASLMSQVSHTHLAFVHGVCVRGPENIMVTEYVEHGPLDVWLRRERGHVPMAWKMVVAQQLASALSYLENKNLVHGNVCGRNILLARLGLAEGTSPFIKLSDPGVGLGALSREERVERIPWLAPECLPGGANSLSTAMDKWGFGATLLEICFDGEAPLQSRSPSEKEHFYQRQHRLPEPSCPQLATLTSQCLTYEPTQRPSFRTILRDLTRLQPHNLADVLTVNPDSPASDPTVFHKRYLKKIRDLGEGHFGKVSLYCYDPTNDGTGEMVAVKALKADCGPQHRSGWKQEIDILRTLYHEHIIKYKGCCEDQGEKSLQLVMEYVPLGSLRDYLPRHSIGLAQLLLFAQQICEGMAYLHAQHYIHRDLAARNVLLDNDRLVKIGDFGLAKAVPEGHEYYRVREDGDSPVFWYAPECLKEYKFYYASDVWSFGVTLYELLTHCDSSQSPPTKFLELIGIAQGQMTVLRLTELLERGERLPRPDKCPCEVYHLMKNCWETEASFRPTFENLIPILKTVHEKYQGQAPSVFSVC

IC50 (JAK1) [nM]	IC50 (JAK2) [nM]	IC50 (JAK3) [nM]	IC50 (TYK2) [µM]	SMILES
1000 to 10000	101 to 1000	11 to 100	1 to 10	Cc1cc2ccc1-c1ccnc(n1)Nc1cc(cc(N3CCOCC3)c1)COCCCCNC2=O [Example 46, 1^2-methyl-4^4-morpholin-6-oxa-3,11-diaza-2(4,2)-pyrimidina-1(1,4),4(1,3)-dibenzenacyclododecaphan-12-one]
101 to 1000	11 to 100	11 to 100	0.101 to 1	O=C1NCCCCOCc2cc(ccc2N2CCOCC2)Nc2ncc(Cl)c(n2)-c2ccc1cc2F [Example 14, 2^5-chloro-1^2-fluoro-4^4-morpholin-6-oxa-3,11-diaza-2(4,2)-pyrimidina-1-(1,4),4(1,3)-dibenzenacyclododeca-phan-12-one]
> 10000	1000 to 10000	101 to 1000	> 10	O=C1NCCCCOCc2cc(ccc2Oc2ccc(F)cc2)Nc2nccc(n2)-c2ccc1cc2[N+](=O)[O-] [Example 106, 4^4-(4-fluorophenoxy)-1^2-nitro-6-o-xa-3,11-diaza-2(4,2)-pyrimidina-1(1,4),4(1,3)-dibenzenacyclo-dodecaphan-12-one]
101 to 1000	101 to 1000	11 to 100	1 to 10	COc1ccc2cc1COCCCCNC(=O)c1ccc(c(F)c1)-c1ccnc(n1)N2 [Example 15, 1^2-fluoro-4^4-methoxy-6-oxa-3,11-di-aza-2(4,2)-pyrimidina-1(1,4),4(1,3)-dibenzenacyclododecaphan-12-one]
1000 to 10000	1000 to 10000	101 to 1000	> 10	CNc1cc2ccc1-c1ccnc(n1)Nc1ccc(OC(C)C)c(c1)COCCCCNC2=O [Example 86, 4^4-isopropoxy-1^2-methyalmino-6-o-xa-3,11-diaza-2(4,2)-pyrimidina-1(1,4),4(1,3)-dibenzenacyclododecaphan-12-one]
1000 to 10000	1000 to 10000	11 to 100	1 to 10	Nc1cc2ccc1-c1ccnc(n1)Nc1ccc(OCC3CCCCC3)c(c1)COCCCCNC2=O [Example 97, 1^2-amino-4^4-(cyclohexylmethoxy)-6-oxa-3,11-diaza-2(4,2)-pyrimidi-na-1(1,4),4(1,3)-dibenzenacyclodo-decaphan-12-one]
101 to 1000	101 to 1000	101 to 1000	0.101 to 1	O=C1NCCCCOCc2cc(ccc2C2CC2)Nc2nccc(n2)-c2ccc1cc2F [Example 2, 1^2-fluoro-4^4-cyclopropyl-6-oxa-3,11-diaza-2 (4,2)-pyrimidina-1(1,4),4(1,3)-dibenzenacyclododecaphan-12-one]
101 to 1000	101 to 1000	101 to 1000	1 to 10	O=C1NCCCCOCc2cc(ccc2Cl)Nc2nccc(n2)-c2ccc1cc2[N+](=O)[O-] [Example 60, 1^2-nitro-4^4-chloro-6-oxa-3,11-diaza-2(4,2)-pyrimidina-1(1,4),4(1,3)-di-benzenacyclododecaphan-12-one]
1000 to 10000	101 to 1000	< 10	> 10	Nc1cc2ccc1-c1ccnc(n1)Nc1ccc(OCC3CC3)c(c1)COCCCCNC2=O [Example 112, 1^2-amino-4^4-(cyclopropylmethoxy)-6-oxa-3,11-diaza-2(4,2)-pyrimidi-na-1(1,4),4(1,3)-dibenzenacyclo-dodecaphan-12-one]
1000 to 10000	1000 to 10000	101 to 1000	> 10	O=C1NCCCCOCc2cc(ccc2F)Nc2nccc(n2)-c2ccc1cc2[N+](=O)[O-] [Example 68, 4^4-fluoro-1^2-nitro-6-oxa-3,11-diaza-2(4,2)-pyrimidina-1(1,4),4(1,3)-di-benzenacyclododecaphan-12-one]
> 10000	1000 to 10000	1000 to 10000	> 10	CC1(C)CCNC(=O)c2ccc(c(N)c2)-c2ccnc(n2)Nc2ccc(OC3CCCOC3)c(c2)COC1 (centres unmarked) [Example 168, 1^2-amino-8,8-dimethyl-4^4-((tetra-hydro-2H-pyran-3-yl)oxy)-6-oxa-3,11-diaza-2(4,2)-pyrimidina-1(1,4),4(1,3)-dibenzenacyclododecaphan-12-one]
1000 to 10000	1000 to 10000	101 to 1000	> 10	O=C1NCCCCOCc2cc(cc(N3CCOCC3)c2)Nc2nccc(n2)-c2ccc1cc2[N+](=O)[O-] [Example 51, 1^2-nitro-4^5-morpholin-6-oxa-3,11-di-aza-2(4,2)-pyrimidina-1(1,4),4(1,3)-dibenzenacyclododecaphan-12-one]
101 to 1000	11 to 100	< 10	0.101 to 1	CC1CCOCc2cc(ccc2OC2CCCOC2)Nc2nccc(n2)-c2ccc(cc2N)C(=O)NC1 (centres unmarked) [Example 165, 1^2-amino-9-methyl-4^4-((tetrahydro-2H-pyran-3-yl)oxy)-6-oxa-3,11-di-aza-2(4,2)-pyrimidina-1(1,4),4(1,3)-dibenzenacyclododecaphan-12-one]
1000 to 10000	101 to 1000	11 to 100	1 to 10	Nc1cc2ccc1-c1ccnc(n1)Nc1ccc(OCC(F)(F)F)c(c1)COCCCCNC2=O [Example 109, 1^2-amino-4^4-(2,2,2-trifluoroethoxy)-6-oxa-3,11-diaza-2(4,2)-pyrimidi-na-1(1,4),4(1,3)-dibenzenacyclo-dodecaphan-12-one]
101 to 1000	11 to 100	< 10	1 to 10	Nc1cc2ccc1-c1ccnc(n1)Nc1ccc(OC3CCOCC3)c(c1)COCCCCNC2=O [Example 63, 1^2-amino-4^4-(4-tetrahydropyranoxy)-6-oxa-3,11-diaza-2(4,2)-pyrimidina-1(1,4),4(1,3)-dibenzenacyclo-dodecaphan-12-one]

SMILES	IC50 (JAK1) [nM]	IC50 (JAK2) [nM]	IC50 (JAK3) [nM]	IC50 (TYK2) [µM]
CC(C)COc1ccc2cc1COCCCCNC(=O)c1ccc(c(N)c1)-c1ccnc(n1)N2 [Example 116, 1^2-amino-4^4-isobutoxy-6-oxa-3,11-diaza-2(4,2)-pyrimidina-1(1,4),4(1,3)-dibenzenacyclododecaphan-12-one]	101 to 1000	101 to 1000	< 10	1 to 10
O=C1Nc2ccc(cc2)OCc2cc(ccc2OC2CCCC2)Nc2nccc(n2)-c2ccc1cc2O [Example 215, 4^4-(cyclopentoxy)-1^2-hydroxy-6-oxa-3,8-diaza-2 (4,2)-pyrimidina-1,7(1,4),4(1,3)-tribenzenacyclononaphane-9-one]	1000 to 10000	101 to 1000	11 to 100	1 to 10

— patent publication US20230203059A1, “MACROCYCLIC JAK INHIBITOR AND USES THEREOF” (Biopolar Hongye (Guangdong) Pharmaceutical Co. Ltd., priority 2020, published 2023)
